Measured values from patent publication US20230286973A1, “PROTEIN SECRETION INHIBITORS” (KEZAR LIFE SCIENCES, priority 2020, published 2023).

Legend:
[1] = system: PD1-ss+10aa/Gaussia Luciferase; experiment: Dox-Induced PD1-ss-Gluc Assay; assay type: cell-based; conditions: 24 hr Dox induction; 293FRT/TO cells; mean; read-out: 24 hr Dox Inducible PD1ssGluc 293FRT/TO: Mean IC50
How it was run: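 Flp-In 293 T-REx, stable line; Tet-regulated PD1-ss+10aa fused to Gaussia luciferase; plated day prior; cpd + doxycycline in DMSO/media; 37 °C, 5% CO2.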

[2] = system: TNFα-FL/Gaussia Luciferase; experiment: Dox Induced TNFα-FL-Gluc Assay; assay type: cell-based; conditions: for IC50: 24 hr Dox induction, 293FRT/TO cells, mean, read-out: 24 hr Dox Inducible TNFaFLGluc 293FRT/TO: Mean IC50; for 24 hr Dox Inducible TNFaFLGluc 293FRT/TO: TNF/PD1: ratio of TNFaFLGluc IC50 to PD1ssGluc IC50, '<=>' given where both are I.A.
How it was run: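 Cell line: stable Flp-In 293 T-REx, TNFα-FL(1-233)-Gaussia luciferase fusion, T-REx-inducible. Plated day -1; compounds in DMSO/media + doxycycline, 37 °C, 5% CO2. Undefined stereocentres = mixture tested.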

[3] = system: HER3-ss+4aa/Gaussia Luciferase; experiment: Dox-Induced Her3-ss-Gluc Assay; assay type: cell-based; conditions: 24 hr Dox induction; 293FRT/TO cells; mean; read-out: 24 hr Dox Inducible Her3(ss + 4)Gluc 293FRT/TO: Mean IC50
How it was run: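 Flp-In 293 T-REx cells, stable HER3-ss+4aa/Gaussia luciferase insert, hygromycin/blasticidin selected; plated day before; compound in DMSO/media + doxycycline; 37° C., 5% CO2.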

[4] = system: IL-2-FL/Gaussia Luciferase; experiment: Dox Induced IL2-FL-Gluc Assay; assay type: cell-based; conditions: for IC50: 24 hr Dox induction, 293FRT/TO cells, mean, read-out: 24 hr Dox Inducible IL2FLGluc 293FRT/TO: Mean IC50; for 24 hr Dox Inducible IL2FLGluc 293FRT/TO: IL2/PD1: ratio of IL2FLGluc IC50 to PD1ssGluc IC50, '<=>' given where both are I.A.
How it was run: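 Stable Flp-In 293 T-REx line, Tet-regulated IL-2 (aa 1-153)–Gaussia luciferase fusion; hygromycin/blasticidin selected. Plated day -1; compound + doxycycline added next day; 37° C, 5% CO2.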

[5] = system: multiple myeloma cell line NCI-H929; experiment: H929 Cell Viability Assay; assay type: cell-based, human; conditions: Homo sapiens, NCI-H929, 48 h, NCI-H929 cells, Celltiter-Glo
How it was run: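 Cells in RPMI 1640/10% FBS; compound dilutions in DMSO/media; 48 h, 37° C, 5% CO2; CellTiter-Glo luciferase readout for viability.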

[6] = system: multiple myeloma cell line U266B1; experiment: U266 Cell Viability Assay; assay type: cell-based, human; conditions: Homo sapiens, U-266, 48 h, U266B1 cells, Celltiter-Glo
How it was run: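 Luminescent ATP read-out (CellTiter-Glo) after 48 h compound exposure at 37° C., 5% CO2; cells maintained in RPMI 1640/10% FBS/2 mM glutamine/pen-strep, compounds diluted in DMSO/media.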

[7] = Liver Microsome Stability Assay (rat); conditions: rat liver microsomes, with NADPH, 1.0 uM compound
Description: (§1) Stability of a compound was assessed in the presence of liver microsomes from various sources—mouse, rat, monkey and human liver microsomes. 1.0 uM compound, 0.4% DMSO in 0.1 M Potassium Phosphate with 1.0 mg/mL liver microsomes, were incubated at 37° C. with or without 1 mM NADPH. The samples were quenched at 0, and 30 minutes.

[8] = Liver Microsome Stability Assay (mouse); conditions: mouse liver microsomes, with NADPH, 1.0 uM compound
Description: as §1

[9] = Liver Microsome Stability Assay (human); conditions: human liver microsomes, with NADPH, 1.0 uM compound
Description: as §1

[10] = Liver Microsome Stability Assay (monkey); conditions: monkey liver microsomes, with NADPH, 1.0 uM compound
Description: as §1

COCCCCn1cccc1C(=O)Nc1nc([C@H]2CCCN2c2ccccc2)cs1 [Compound C23, (R)-1-(4-methoxybutyl)-N-(4-(1-phenylpyrrolidin-2-yl)thiazol-2-yl)-1H-pyrrole-2-carboxamide]
IC50 [1]: 5.09 µM | IC50 [2]: > 25 µM | 24 hr Dox Inducible TNFaFLGluc 293FRT/TO: TNF/PD1 [2]: >4.91 | IC50 [3]: 17.5 µM | IC50 [4]: 7.65 µM | 24 hr Dox Inducible IL2FLGluc 293FRT/TO: IL2/PD1 [4]: 1.5 | EC50 [5]: 24.1 µM | EC50 [6]: > 25 µM | Liver Microsome Stability (Multiple Species): Rat - % Remaining after 30 min w/NADPH [7]: 8.52% | Liver Microsome Stability (Multiple Species): Mouse - % Remaining after 30 min w/NADPH [8]: 12.7% | Liver Microsome Stability (Multiple Species): Human - % Remaining after 30 min w/NADPH [9]: 15.8% | Liver Microsome Stability (Multiple Species): Monkey - % Remaining after 30 min w/NADPH [10]: 4.38%

Cc1ccc(N2CCC[C@@H]2c2csc(NC(=O)c3cccn3CC3CCOCC3)n2)cc1 [Compound C53, (R)-1-((tetrahydro-2H-pyran-4-yl)methyl)-N-(4-(1-(p-tolyl)pyrrolidin-2-yl)thiazol-2-yl)-1H-pyrrole-2-carboxamide]
IC50 [1]: 0.0146 µM | IC50 [2]: 0.266 µM | 24 hr Dox Inducible TNFaFLGluc 293FRT/TO: TNF/PD1 [2]: 18.2 | IC50 [3]: 0.0387 µM | IC50 [4]: 0.0719 µM | 24 hr Dox Inducible IL2FLGluc 293FRT/TO: IL2/PD1 [4]: 4.9 | EC50 [5]: 1.9 µM | EC50 [6]: > 25 µM | Liver Microsome Stability (Multiple Species): Rat - % Remaining after 30 min w/NADPH [7]: 60.2% | Liver Microsome Stability (Multiple Species): Mouse - % Remaining after 30 min w/NADPH [8]: 62.6% | Liver Microsome Stability (Multiple Species): Human - % Remaining after 30 min w/NADPH [9]: 63.8% | Liver Microsome Stability (Multiple Species): Monkey - % Remaining after 30 min w/NADPH [10]: 23.6%

O=C(Nc1nc([C@H]2CCCN2c2ccc(OC(F)(F)F)cc2)cs1)c1cccn1CC1CCOCC1 [Compound C54, (R)-1-((tetrahydro-2H-pyran-4-yl)methyl)-N-(4-(1-(4-(trifluoromethoxy)phenyl)pyrrolidin-2-yl)thiazol-2-yl)-1H-pyrrole-2-carboxamide]
IC50 [1]: 0.132 µM | IC50 [2]: 1.79 µM | 24 hr Dox Inducible TNFaFLGluc 293FRT/TO: TNF/PD1 [2]: 13.5 | IC50 [3]: 0.272 µM | IC50 [4]: 0.479 µM | 24 hr Dox Inducible IL2FLGluc 293FRT/TO: IL2/PD1 [4]: 3.6 | EC50 [5]: 6.53 µM | EC50 [6]: > 25 µM | Liver Microsome Stability (Multiple Species): Rat - % Remaining after 30 min w/NADPH [7]: 67.6% | Liver Microsome Stability (Multiple Species): Mouse - % Remaining after 30 min w/NADPH [8]: 99.1% | Liver Microsome Stability (Multiple Species): Human - % Remaining after 30 min w/NADPH [9]: 77.9% | Liver Microsome Stability (Multiple Species): Monkey - % Remaining after 30 min w/NADPH [10]: 46.8%

O=C(Nc1nc([C@H]2CCCN2c2ccccc2)cs1)c1cccn1CC1CCOCC1 [Compound C55, (R)-N-(4-(1-phenylpyrrolidin-2-yl)thiazol-2-yl)-1-((tetrahydro-2H-pyran-4-yl)methyl)-1H-pyrrole-2-carboxamide]
IC50 [1]: 0.168 µM | IC50 [2]: 2.56 µM | 24 hr Dox Inducible TNFaFLGluc 293FRT/TO: TNF/PD1 [2]: 15.3 | IC50 [3]: 0.374 µM | IC50 [4]: 0.74 µM | 24 hr Dox Inducible IL2FLGluc 293FRT/TO: IL2/PD1 [4]: 4.4 | EC50 [5]: 20.1 µM | EC50 [6]: > 25 µM | Liver Microsome Stability (Multiple Species): Rat - % Remaining after 30 min w/NADPH [7]: 22.5% | Liver Microsome Stability (Multiple Species): Mouse - % Remaining after 30 min w/NADPH [8]: 22.7% | Liver Microsome Stability (Multiple Species): Human - % Remaining after 30 min w/NADPH [9]: 26.7% | Liver Microsome Stability (Multiple Species): Monkey - % Remaining after 30 min w/NADPH [10]: 6.6%

O=C(Nc1nc([C@H]2CCCN2c2ccccc2)cs1)c1cccn1CC1CCOC1 (stereo partly drawn) [Compound C56, N-(4-((R)-1-phenylpyrrolidin-2-yl)thiazol-2-yl)-1-((tetrahydrofuran-3-yl)methyl)-1H-pyrrole-2-carboxamide]
IC50 [1]: 1.75 µM | IC50 [2]: 19.2 µM | 24 hr Dox Inducible TNFaFLGluc 293FRT/TO: TNF/PD1 [2]: 11 | IC50 [3]: 3.27 µM | IC50 [4]: 4.67 µM | 24 hr Dox Inducible IL2FLGluc 293FRT/TO: IL2/PD1 [4]: 2.7 | EC50 [5]: > 25 µM | EC50 [6]: > 25 µM | Liver Microsome Stability (Multiple Species): Rat - % Remaining after 30 min w/NADPH [7]: 10.9% | Liver Microsome Stability (Multiple Species): Mouse - % Remaining after 30 min w/NADPH [8]: 21% | Liver Microsome Stability (Multiple Species): Human - % Remaining after 30 min w/NADPH [9]: 24.4% | Liver Microsome Stability (Multiple Species): Monkey - % Remaining after 30 min w/NADPH [10]: 2.02%

NC(=O)CCCCn1cccc1C(=O)Nc1nc([C@H]2CCCN2c2ccccc2)cs1 [Compound C58]
IC50 [1]: 7.88 µM | IC50 [2]: > 25 µM | 24 hr Dox Inducible TNFaFLGluc 293FRT/TO: TNF/PD1 [2]: >3.17 | IC50 [3]: 9.1 µM | IC50 [4]: > 25 µM | 24 hr Dox Inducible IL2FLGluc 293FRT/TO: IL2/PD1 [4]: 3.2 | EC50 [5]: > 25 µM | EC50 [6]: > 25 µM | Liver Microsome Stability (Multiple Species): Rat - % Remaining after 30 min w/NADPH [7]: 34.7% | Liver Microsome Stability (Multiple Species): Mouse - % Remaining after 30 min w/NADPH [8]: 17% | Liver Microsome Stability (Multiple Species): Human - % Remaining after 30 min w/NADPH [9]: 35.7% | Liver Microsome Stability (Multiple Species): Monkey - % Remaining after 30 min w/NADPH [10]: 27.4%

CN(C)C(=O)CCn1cccc1C(=O)Nc1nc([C@H]2CCCN2c2ccccc2)cs1 [Compound C59, (R)-1-(3-(dimethylamino)-3-oxopropyl)-N-(4-(1-phenylpyrrolidin-2-yl)thiazol-2-yl)-1H-pyrrole-2-carboxamide]
IC50 [1]: 7.98 µM | IC50 [2]: > 25 µM | 24 hr Dox Inducible TNFaFLGluc 293FRT/TO: TNF/PD1 [2]: >3.13 | IC50 [3]: 12.2 µM | IC50 [4]: > 25 µM | 24 hr Dox Inducible IL2FLGluc 293FRT/TO: IL2/PD1 [4]: 3.1 | EC50 [5]: > 25 µM | EC50 [6]: > 25 µM | Liver Microsome Stability (Multiple Species): Rat - % Remaining after 30 min w/NADPH [7]: 11.5% | Liver Microsome Stability (Multiple Species): Mouse - % Remaining after 30 min w/NADPH [8]: 3.23% | Liver Microsome Stability (Multiple Species): Human - % Remaining after 30 min w/NADPH [9]: 0.87% | Liver Microsome Stability (Multiple Species): Monkey - % Remaining after 30 min w/NADPH [10]: 2.48%

CN(C)C(=O)CCCCn1cccc1C(=O)Nc1nc([C@H]2CCCN2c2ccccc2)cs1 [Compound C60, (R)-1-(5-(dimethylamino)-5-oxopentyl)-N-(4-(1-phenylpyrrolidin-2-yl)thiazol-2-yl)-1H-pyrrole-2-carboxamide]
IC50 [1]: 8.59 µM | IC50 [2]: > 25 µM | 24 hr Dox Inducible TNFaFLGluc 293FRT/TO: TNF/PD1 [2]: >2.91 | IC50 [3]: > 25 µM | IC50 [4]: > 25 µM | 24 hr Dox Inducible IL2FLGluc 293FRT/TO: IL2/PD1 [4]: 2.9 | EC50 [5]: > 25 µM | EC50 [6]: > 25 µM | Liver Microsome Stability (Multiple Species): Rat - % Remaining after 30 min w/NADPH [7]: 6.4% | Liver Microsome Stability (Multiple Species): Mouse - % Remaining after 30 min w/NADPH [8]: 0.25% | Liver Microsome Stability (Multiple Species): Human - % Remaining after 30 min w/NADPH [9]: 0.05% | Liver Microsome Stability (Multiple Species): Monkey - % Remaining after 30 min w/NADPH [10]: 0.09%
